Assay [1] has as its system Mink lung epithelial cells (Mv 1 Lu). In words: Mv 1 Lu growth inhibition assay for agonistic TGF activity (peptides alone, acid phosphatase readout). The settings on record: peptide alone, 5 days of incubation, acid phosphatase activity as marker for cell growth. In kind it is cell-based. The protocol: (§1) An assay for TGF-β1 biological activity, bases on Mink lung epithelial cells (Mv 1 Lu), was used for analysis of the biological activity of peptides derived from the human TGF-β1 primary sequence. This assay is based on growth inhibition of Mv 1 Lu cells in presence of TGF-β1. Inhihition of Mv 1 Lu growth is quantified by acid phosphatase activity as a marker for cell growth.
(§2) Mink lung epithelial cells (Mv 1 Lu) were plated in 96-well tissue culture plates (Costar, Cambridge, MA) at 100 cells/well in 100 µl Eagle's MEM supplemented with 20IE/ml penicillin, 1 mg/ml streptomycin, 0.4 mM L-glutamine, 10 mM HEPES and 10% FCS (HyClone, Logan, UT). Plates were incubated at 37°C and 5% CO2 in a humidified incubator for 1.5 h to allow cell attachment. After cell attachment peptides were added in a volume of 50 µl in Eagle's MEM supplemented with 20IE/ml penicillin, 1 mg/ml streptomycin, 0.4 mM L-glutamine, 10 mM HEPES and 10% FCS and titrated with eight threefold dilutions of peptide. The cells were subsequently incubated for 5 days at 37°C and 5% CO2 in a humidified incubator. After incubation cell growth was monitored using acid phosphatase activity as a marker: The plates were washed twice with 200 µl PBS per well and 100 µl of substrate solution (0.1 M sodium acetate, 0,1% Triton X-100, 3.7 mg/ml p-nitrophenyl phosphate, pH 5.5) were added to each well. The plates were then incubated for 1.5 h at 37°C, after which 25 µl of 0.4 M NaOH were added to each well. Acid phosphatase activity was detected by measuring the OD of the substrate solution using an microplate reader at 405 nm.
In this example, all peptides comprising 12 amino acids prepared as described under the head "Peptide synthesis", were tested in the Mv 1 Lu growth inhibition assay. In this assay peptides were titrated in eight threefold dilutions, starting with a peptide quantity of 10-100 µg per well. After 5 days of incubation the wells were tested for acid phosphatase activity.

Assay [2] has the same test system. Nature of the assay: Mv 1 Lu growth inhibition assay, preincubation with peptides followed by a suboptimal quantity of TGF-β1. In kind it is cell-based. The settings on record: 4 h preincubation with peptide, then suboptimal 3.3 x 10^-3 µM TGF-β1, 5 days of incubation. The protocol:
as §1, §2
In this example Mv 1 Lu cells were preincubated with TGF-β1 derived peptides which were titrated in eight threefold dilutions, starting with a peptide quantity of 10-100 µg per well. After 4 h of preincubation a suboptimal quantity of 3.3 x 10^-3 µM TGF-β1. The TGF-β1 (R&D systems, M1) Porcine TGF-β1 is 100% homologue to humam TGF-β1 (Roberts et al. in Handbook of Experimental Pharmacology, Editors Sporn, M.B.; Robers A.B.; Springer Verlag Heidelberg (1990), 95, 419) was added. After 5 days of incubation the wells were tested for acid phosphatase activity.

For CCVRQLYIDFRK, the “growth inhibition of mink lung epithelial cells (TGF agonist activity)” value (“growth inhibition” for short) in assay [1] was “inhibited the growth of mink lung epithelial cells in a similar way as TGF-β1 does”. For the same sequence, the “enhanced inhibition of the growth of mink lung epithelial cells when combined with TGF-β1 (synergistic effect)” value (from here on “enhanced inhibition”) in assay [2] was “enhanced inhibition of the growth of the mink lung epithelial cells”.
Take CFSSTEKNCCVR: the “growth inhibition” value in assay [1] is given as “inhibited the growth of mink lung epithelial cells in a similar way as TGF-β1 does”.
On the same count and under the same terms, in the case of EKNCCVRQLYID it was “inhibited the growth of mink lung epithelial cells in a similar way as TGF-β1 does”; in that of FSSTEKNCCVRQ, “inhibited the growth of mink lung epithelial cells in a similar way as TGF-β1 does”.
As for HNPGASAAPCCV, the “enhanced inhibition” value in assay [2] is listed as “enhanced inhibition of the growth of the mink lung epithelial cells”.
Take KNCCVRQLYIDF: the “enhanced inhibition” value in assay [2] is on record as “enhanced inhibition of the growth of the mink lung epithelial cells”.
For LSNMIVRSCKCS, the “growth inhibition” value in assay [1] is given as “inhibited the growth of mink lung epithelial cells in a similar way as TGF-β1 does”. In assay [2], the “enhanced inhibition” value is “enhanced inhibition of the growth of the mink lung epithelial cells”.
Consider NCCVRQLYIDFR, for which the “growth inhibition” value in assay [1] is “inhibited the growth of mink lung epithelial cells in a similar way as TGF-β1 does”. The “enhanced inhibition” value in assay [2] is recorded as “enhanced inhibition of the growth of the mink lung epithelial cells”.
For QHNPGASAAPCC, in assay [2], the “enhanced inhibition” value is “enhanced inhibition of the growth of the mink lung epithelial cells”.
